Results published in paper PMC6902473 (Clinical Epigenetics, 2019).
Where “and” joins values, the source holds several entries; their conditions need not be identical. Identical values can stand only once. Like-named read-outs stand apart in the source and are kept apart here.

What was measured:
[1] = human, in vivo
Experimental: (§1) The study design was a single-arm, multi-center phase I/II clinical trial with two phases: Phase I was an intra-patient dose (de)escalation period until an individual maximum tolerable dose (MTD) was reached. […] A DLT was defined as grade 3 or 4 toxicity according to a selection of Common Toxicity Criteria for Adverse Events (CTCAE) (V4.0) and judged by the investigator as definitely, probably, or possibly related to the study drug. The starting dose was 180 mg/m^2/day and the minimum dose was 30 mg/m^2/day. A dosing nomogram was used to minimize interpatient dosing variability.
(§2) De-escalation was done in steps of 50 mg/m^2/day until a minimal dose of 30 mg/m^2/day was reached. […] Upon reaching her or his individual MTD, a patient seamlessly entered phase II of the protocol.
(§3) During phase II, disease assessments were performed every 3 months, starting 3 months after reaching individual MTD. If treatment was discontinued for any reason during phase II, treatment was prolonged thereafter to provide a minimal treatment window of 3 months before measuring response. Patients without progressive disease continued the therapy at their individual MTD until disease progression (but no longer than 9 months). In case of clinical benefit, treatment could be continued on an individual basis at the discretion of the investigator. Toxicities were graded according CTCAE V4.0.
(§4) The primary end point was to determine a safe dose recommendation (SDR), defined as the highest dose with a DLT in no more than 1/50 patients.
(§5) The DLT associated with the starting dose was to be continuously monitored using a Bayesian criterion with a non-informative prior and a binomial-beta model for the DLT rate r. […] This decision process was repeated, i.e., it was applied to the lowered starting dose in an analogous way.
(§6) All adverse events were summarized, using MedDRA preferred terms.

[2] = daily and continuous dosing; cited from earlier work
[3] = Phase I/II intra-patient dose escalation trial: safety (DLT, individual MTD, SDR, adverse events CTCAE v4.0)
Experimental: as §1, §2, §3, §4, §5, §6

[4] = maximum Grade 3 CTCAE v4.0, n = 50

O=C(CCCCCCC(=O)Nc1ccccc1)NO [vorinostat]
Patients with all causalities AE: AE [1]: 49 (98) No. (%)
Patients with all causalities AE: AE leading to dose reduction or temporary treatment discontinuation [1]: 38 (76) No. (%)
Patients with all causalities AE: AE leading to treatment discontinuation [1]: 9 (18) No. (%)
Patients with all causalities AE: SAEs [1]: 19 (38) No. (%)
Patients with all causalities AE: Severe AEs (CTCAE grade 3/4) [1]: 48 (96) No. (%)
Patients with treatment related AE: Alanine aminotransferase increased [1]: 2 (4.0) Patients (%)
Patients with treatment related AE: Alopecia [1]: 9 (18.0) Patients (%)
Patients with treatment related AE: Anemia [1]: 8 (16.0) Patients (%)
Patients with treatment related AE: Blood creatinine increased [1]: 5 (10.0) Patients (%)
Patients with treatment related AE: Blood lactate dehydrogenase increased [1]: 4 (8.0) Patients (%)
Patients with treatment related AE: Constipation [1]: 4 (8.0) Patients (%)
Patients with treatment related AE: Cough [1]: 3 (6.0) Patients (%)
Patients with treatment related AE: Decreased appetite [1]: 5 (10.0) Patients (%)
Patients with treatment related AE: Diarrhea [1]: 11 (22.0) Patients (%)
Patients with treatment related AE: Dry skin [1]: 4 (8.0) Patients (%)
Patients with treatment related AE: Fatigue [1]: 9 (18.0) Patients (%)
Patients with treatment related AE: Headache [1]: 5 (10.0) Patients (%)
Patients with treatment related AE: Nausea [1]: 11 (22.0) Patients (%)
Patients with treatment related AE: Platelet count decreased [1]: 6 (12.0) Patients (%)
Patients with treatment related AE: Pyrexia [1]: 3 (6.0) Patients (%)
Patients with treatment related AE: Vomiting [1]: 8 (16.0) Patients (%)
Patients with treatment related AE: Weight decreased [1]: 5 (10.0) Patients (%)
Patients with treatment related AE: White blood cell decreased [1]: 1 (2.0) Patients (%)
Total of patients with treatment related AE: Alanine aminotransferase increased [1]: 4 (8.0, 2.2 - 19.2) Patients (%, 95% CIs)
Total of patients with treatment related AE: Alopecia [1]: 9 (18.0, 8.6 - 31.4) Patients (%, 95% CIs)
Total of patients with treatment related AE: Blood creatinine increased [1]: 5 (10.0, 3.3 - 21.8) Patients (%, 95% CIs)
Total of patients with treatment related AE: Blood lactate dehydrogenase increased [1]: 4 (8.0, 2.2 - 19.2) Patients (%, 95% CIs)
Total of patients with treatment related AE: Constipation [1]: 4 (8.0, 2.2 - 19.2) Patients (%, 95% CIs)
Total of patients with treatment related AE: Decreased appetite [1]: 7 (14.0, 5.8 - 26.7) Patients (%, 95% CIs)
Total of patients with treatment related AE: Headache [1]: 6 (12.0, 4.5 - 24.3) Patients (%, 95% CIs)
Total of patients with treatment related AE: Weight decreased [1]: 8 (16.0, 7.2 - 29.1) Patients (%, 95% CIs)
Total of patients with treatment related AE: White blood cell decreased [1]: 9 (18.0, 8.6 - 31.4 ) Patients (%, 95% CIs)
Total sum of DLTs: Abdominal pain [1]: 1
Total sum of DLTs: Abdominal pain upper [1]: 2
Total sum of DLTs: Aggression [1]: 1
Total sum of DLTs: Alanine aminotransferase increased [1]: 3
Total sum of DLTs: Anemia [1]: 2
Total sum of DLTs: Apathy [1]: 1
Total sum of DLTs: Decreased appetite [1]: 3
Total sum of DLTs: Fatigue [1]: 7
Total sum of DLTs: Febrile infection [1]: 2
Total sum of DLTs: Hypermagnesemia [1]: 3
Total sum of DLTs: Hypokalemia [1]: 1
Total sum of DLTs: Loss of personal independence in daily activities [1]: 1
Total sum of DLTs: Vomiting [1]: 2
Total sum of DLTs: Weight decreased [1]: 2
Total sum of DLTs: White blood cell decreased [1]: 11
pediatric recommended phase 2 dose [2]: 230 mg/m^2/day
median individual MTD ([3]; Safety population (n = 50)): 280 mg/m^2/day
patients who reached the maximum individual MTD of 580 mg/m^2/day ([3]; Safety population (n = 50)): 4/50
treatment-related deaths ([3]; Safety population (n = 50)): No treatment-related deaths
safe dose recommendation (SDR) ([3]; highest dose with a DLT in no more than 1/50 patients, starting dose for individual dose escalation): 130 mg/m^2/day
Patients with treatment related AE: Anemia [3, 4]: 2 (4.0) Patients (%)
Patients with treatment related AE: Decreased appetite [3, 4]: 2 (4.0) Patients (%)
Patients with treatment related AE: Diarrhea [3, 4]: 1 (2.0) Patients (%)
Patients with treatment related AE: Fatigue [3, 4]: 7 (14.0) Patients (%)
Patients with treatment related AE: Headache [3, 4]: 1 (2.0) Patients (%)
Patients with treatment related AE: Hypermagnesemia [3, 4]: 3 (6.0) Patients (%)
Patients with treatment related AE: Nausea [3, 4]: 4 (8.0) Patients (%)
Patients with treatment related AE: Platelet count decreased [3, 4]: 15 Patients (%) and 15 (30.0) Patients (%)
Patients with treatment related AE: Vomiting [3, 4]: 2 (4.0) Patients (%)
Patients with treatment related AE: Weight decreased [3, 4]: 3 (6.0) Patients (%)
Patients with treatment related AE: White blood cell decreased [3, 4]: 8 (16.0) Patients (%)
Patients with treatment related AE: Platelet count decreased ([3]; maximum Grade 4 CTCAE v4.0, n = 50): 16 Patients (%) and 16 (32.0) Patients (%)
maximum individual MTD ([3]; maximum dose of the escalation scheme): 580 mg/m^2/day
MTD ([3]; single patient: High grade glioma, highest methylation score for glioblastoma IDH wt): 530 mg/m^2/d
MTD ([3]; single patient: High grade glioma, methylation profile pilocytic astrocytoma, BRAF (p.V600E)): 280 mg/m^2/d
MTD ([3]; single patient: High grade glioma, no molecular data, last dose level 280 mg/m^2/d): 530 mg/m^2/d
MTD ([3]; single patient: Medulloblastoma): 580 mg/m^2/d
MTD ([3]; single patient: SETTLE tumor): 580 mg/m^2/d
